Results on 8 compounds are retold here after patent US9040528B2, “Chemical compounds 542” (AstraZeneca AB, priority 2008, dated 2015).

Molecules are shown by their SMILES.

This test deals with Escherichia coli DNA gyrase A/B tetramer (Escherichia coli (strain K12), UniProt P0AES4+P0AES6). The experiment in a line: DNA gyrase supercoiling activity fluorescence polarisation assay. The format is biochemical. As to conditions: 5 nM enzyme, relaxed plasmid, 0.3 mM ATP, ambient temperature; read-out: E. coli DNA gyrase supercoiling IC50. In a few lines:
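Supercoiling reactions quenched with 40 nM 5′-BODIPY-FL triplex-forming oligonucleotide probe in pH 3.5 NaCl/sodium acetate buffer; after 60 min, fluorescence anisotropy read (ex 485/em 535 nm). IC50 by nonlinear regression, normalised to 0.8% DMSO (100% activity) and 5 μM ciprofloxacin (0% activity).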
A general note: Fluorescence polarisation rises when a labelled molecule tumbles more slowly, as on binding a larger partner.
With `C[C@@H]1CN2c3c(nc4c(C(=O)NC(C)(C)C)noc4c3Cl)CC3(C(=O)NC(=O)NC3=O)[C@H]2[C@H](C)O1` (relative stereo) [Example 128, (2R,4S,4aS)-rel-N-tert-butyl-11-chloro-2,4-dimethyl-2′,4′,6′-trioxo-2,2′,3′,4,4a,4′,6,6′-octahydro-1H,1′H-spiro[isoxazolo[4,5-g][1,4]oxazino[4,3-a][1,5]naphthyridine-5,5′-pyrimidine]-8-carboxamide], the IC50 was 19 µM.
With `C[C@@H]1CN2c3c(nc4c(C(=O)NCC(C)(C)C)noc4c3Cl)CC3(C(=O)NC(=O)NC3=O)[C@H]2[C@H](C)O1` (relative stereo) [Example 129, (2R,4S,4aS)-rel-11-Chloro-2,4-dimethyl-N-neopentyl-2′,4′,6′-trioxo-2,2′,3′,4,4a,4′,6,6′-octahydro-1H,1′H-spiro[isoxazolo[4,5-g][1,4]oxazino[4,3-a][1,5]naphthyridine-5,5′-pyrimidine]-8-carboxamide], the IC50 turned out to be 31 µM.
The same measure for `C[C@@H]1CN2c3c(nc4c(C(=O)N5CC(F)(F)C5)noc4c3Cl)CC3(C(=O)NC(=O)NC3=O)[C@H]2[C@H](C)O1` (relative stereo) [Example 130, (2R,4S,4aS)-rel-11-Chloro-8-(3,3-difluoroazetidine-1-carbonyl)-2,4-dimethyl-2,4,4a,6-tetrahydro-1H,1′H-spiro[isoxazolo[4,5-g][1,4]oxazino[4,3-a][1,5]naphthyridine-5,5′-pyrimidine]-2′,4′,6′(3′H)-trione]: 30 µM.
Consider `C[C@@H]1CN2c3c(nc4c(C(=O)NCc5ccccc5)noc4c3Cl)CC3(C(=O)NC(=O)NC3=O)[C@H]2[C@H](C)O1` (relative stereo) [Example 131, (2R,4S,4aS)-rel-N-benzyl-11-chloro-2,4-dimethyl-2′,4′,6′-trioxo-2,2′,3′,4,4a,4′,6,6′-octahydro-1H,1′H-spiro[isoxazolo[4,5-g][1,4]oxazino[4,3-a][1,5]naphthyridine-5,5′-pyrimidine]-8-carboxamide], for which the IC50 is 4.4 µM.
The figure for `C[C@@H]1CN2c3c(nc4c(C(=O)NCc5ccc(C#N)cc5)noc4c3Cl)CC3(C(=O)NC(=O)NC3=O)[C@H]2[C@H](C)O1` (relative stereo) [Example 132, (2R,4S,4aS)-rel-11-chloro-N-(4-cyanobenzyl)-2,4-dimethyl-2′,4′,6′-trioxo-2,2′,3′,4,4a,4′,6,6′-octahydro-1H,1′H-spiro[isoxazolo[4,5-g][1,4]oxazino[4,3-a][1,5]naphthyridine-5,5′-pyrimidine]-8-carboxamide] is 7.7 µM; for `C[C@@H]1CN2c3c(nc4c(C(=O)NCc5cccc(C#N)c5)noc4c3Cl)CC3(C(=O)NC(=O)NC3=O)[C@H]2[C@H](C)O1` (relative stereo) [Example 133, (2R,4S,4aS)-rel-11-chloro-N-(3-cyanobenzyl)-2,4-dimethyl-2′,4′,6′-trioxo-2,2′,3′,4,4a,4′,6,6′-octahydro-1H,1′H-spiro[isoxazolo[4,5-g][1,4]oxazino[4,3-a][1,5]naphthyridine-5,5′-pyrimidine]-8-carboxamide] it is 13 µM.
On to `CCOC(=O)c1noc2c(F)c3c(cc12)CC1(C(=O)NC(=O)NC1=O)[C@H]1[C@H](C)O[C@H](C)CN31` (relative stereo) [Example 134, (2R,4S,4aS)-rel-ethyl 11-fluoro-2,4-dimethyl-2′,4′,6′-trioxo-2,2′,3′,4,4a,4′,6,6′-octahydro-1H,1′H-spiro[isoxazolo[4,5-g][1,4]oxazino[4,3-a]quinoline-5,5′-pyrimidine]-8-carboxylate], for which the IC50 came out at 1 µM.
The figure for `C[C@@H]1CN2c3c(cc4c(C(=O)N5CCOCC5)noc4c3F)CC3(C(=O)NC(=O)NC3=O)[C@H]2[C@H](C)O1` (relative stereo) [Example 135, (2R,4S,4aS)-rel-11-fluoro-2,4-dimethyl-8-(morpholine-4-carbonyl)-2,4,4a,6-tetrahydro-1H,1′H-spiro[isoxazolo[4,5-g][1,4]oxazino[4,3-a]quinoline-5,5′-pyrimidine]-2′,4′,6′(3′H)-trione] is 3.3 µM.

As usually defined, the IC50 is the concentration needed to halve the response being measured.
